Data as given in patent US20230295096A1, “PYRAZOLE CARBOXAMIDE COMPOUNDS FOR TREATMENT OF HBV” (ASSEMBLY BIOSCIENCES, INC., priority 2020, published 2023).

System: HBV
Assay: Viral load production from HepAD38 cells, qPCR of the HBV core sequence in supernatant
Type: cell-based
Settings: Hepatitis B virus, HePAD38, 120 h, HepAD38 cells, 5 days, HBV DNA in supernatant by qPCR; Table 1 ranges; read-out: Activity (viral load lowering EC50)
Procedure, shortened: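 EC50 and CC50 come from four-parameter logistic fits of supernatant HBV core DNA (TaqMan qPCR, DNA standards, compared with DMSO wells) and of CellTiter-Glo luminescence.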

Row | Structure (SMILES) | EC50
1 | Cn1nc(C2CC3CC(CNS(=O)(=O)C4CCOCC4)CC3C2)c(C(=O)Nc2ccc(F)c(Cl)c2)c1N (centres unmarked) [Example 96, 5-Amino-N-(3-chloro-4-fluorophenyl)-1-methyl-3-(5-(((tetrahydro-2H-pyran)-4-sulfonamido)methyl)octahydropentalen-2-yl)-1H-pyrazole-4-carboxamide] | < 10 nM
2 | Cn1nc(C2CC3CC(CNS(=O)(=O)C4CCS(=O)(=O)CC4)CC3C2)c(C(=O)Nc2ccc(F)c(Cl)c2)c1N (centres unmarked) [Example 97, 5-Amino-N-(3-chloro-4-fluorophenyl)-3-(5-(((1,1-dioxidotetrahydro-2H-thiopyran)-4-sulfonamido)methyl)octahydropentalen-2-yl)-1-methyl-1H-pyrazole-4-carboxamide] | 10 to 50 nM
3 | CC(C(F)(F)F)S(=O)(=O)NCC1CC2CC(c3nn(C)c(N)c3C(=O)Nc3ccc(F)c(Cl)c3)CC2C1 (centres unmarked) [Example 98, 5-Amino-N-(3-chloro-4-fluorophenyl)-1-methyl-3-(5-(((2,2,2-trifluoro-1-methylethyl)sulfonamido)methyl)octahydropentalen-2-yl)-1H-pyrazole-4-carboxamide] | 10 to 50 nM
4 | C[C@@H](NC1CC2CC(c3nn(C)c(N)c3C(=O)Nc3ccc(F)c(Cl)c3)CC2C1)C(F)(F)F (stereo partly drawn) [Example 99, 5-Amino-N-(3-chloro-4-fluorophenyl)-1-methyl-3-(5-(((R)-1,1,1-trifluoropropan-2-yl)amino)octahydropentalen-2-yl)-1H-pyrazole-4-carboxamide] | 10 to 50 nM
5 | C[C@H](NC1CC2CC(c3nn(C)c(N)c3C(=O)Nc3ccc(F)c(Cl)c3)CC2C1)C(F)(F)F (stereo partly drawn) [Example 100, 5-Amino-N-(3-chloro-4-fluorophenyl)-1-methyl-3-(5-(((S)-1,1,1-trifluoropropan-2-yl)amino)octahydropentalen-2-yl)-1H-pyrazole-4-carboxamide] | 10 to 50 nM
6 | Cn1nc(C2CC3CC4(CNC(=O)N4)CC3C2)c(C(=O)Nc2ccc(F)c(Cl)c2)c1N (centres unmarked) [Example 114, 5-Amino-N-(3-chloro-4-fluorophenyl)-1-methyl-3-(2-oxohexahydro-1′H-spiro[imidazolidine-4,2′-pentalen]-5′-yl)-1H-pyrazole-4-carboxamide] | 50 to 500 nM
7 | Cn1nc(C2CC3CC4(CC3C2)NC(=O)NC4=O)c(C(=O)Nc2ccc(F)c(Cl)c2)c1N (centres unmarked) [Example 116, 5-Amino-N-(3-chloro-4-fluorophenyl)-3-(2,5-dioxohexahydro-1′H-spiro[imidazolidine-4,2′-pentalen]-5′-yl)-1-methyl-1H-pyrazole-4-carboxamide] | 50 to 500 nM
8 | Cn1nc(C2CC3CN(C4COC4)CC3C2)c(C(=O)Nc2ccc(F)c(Cl)c2)c1N (centres unmarked) [Example 117, 5-Amino-N-(3-chloro-4-fluorophenyl)-1-methyl-3-(2-(oxetan-3-yl)octahydrocyclopenta[c]pyrrol-5-yl)-1H-pyrazole-4-carboxamide] | 50 to 500 nM
9 | Cn1nc(C2CC3CN(C(=O)OC4CC(F)(F)C4)CC3C2)c(C(=O)Nc2ccc(F)c(Cl)c2)c1N (centres unmarked) [Example 118, 3,3-Difluorocyclobutyl 5-(5-amino-4-((3-chloro-4-fluorophenyl)carbamoyl)-1-methyl-1H-pyrazol-3-yl)hexahydrocyclopenta[c]pyrrole-2(1H)-carboxylate] | 50 to 500 nM
10 | Cn1nc(C2CC3CN(C(=O)OC4COC4)CC3C2)c(C(=O)Nc2ccc(F)c(Cl)c2)c1N (centres unmarked) [Example 119, Oxetan-3-yl 5-(5-amino-4-((3-chloro-4-fluorophenyl)carbamoyl)-1-methyl-1H-pyrazol-3-yl)hexahydrocyclopenta[c]pyrrole-2(1H)-carboxylate] | 10 to 50 nM
11 | Cn1nc(C2CC3CN(C(=O)c4cnc(C(F)(F)F)s4)CC3C2)c(C(=O)Nc2ccc(F)c(Cl)c2)c1N (centres unmarked) [Example 120, 5-Amino-N-(3-chloro-4-fluorophenyl)-1-methyl-3-(2-(2-(trifluoromethyl)thiazole-5-carbonyl)octahydrocyclopenta[c]pyrrol-5-yl)-1H-pyrazole-4-carboxamide] | 50 to 500 nM
12 | Cn1nc(C2CC3CN(C(=O)c4cccc(F)c4)CC3C2)c(C(=O)Nc2ccc(F)c(Cl)c2)c1N (centres unmarked) [Example 121, 5-Amino-N-(3-chloro-4-fluorophenyl)-3-(2-(3-fluorobenzoyl)octahydrocyclopenta[c]pyrrol-5-yl)-1-methyl-1H-pyrazole-4-carboxamide] | 10 to 50 nM
13 | Cn1nc(C2CC3CN(C(=O)Nc4cccc(F)c4)CC3C2)c(C(=O)Nc2ccc(F)c(Cl)c2)c1N (centres unmarked) [Example 122, 5-(5-Amino-4-((3-chloro-4-fluorophenyl)carbamoyl)-1-methyl-1H-pyrazol-3-yl)-N-(3-fluorophenyl)hexahydrocyclopenta[c]pyrrole-2(1H)-carboxamide] | 10 to 50 nM
14 | Cn1nc(C2CC3CN(C(=O)NC4CC(F)(F)C4)CC3C2)c(C(=O)Nc2ccc(F)c(Cl)c2)c1N (centres unmarked) [Example 123, 5-(5-Amino-4-((3-chloro-4-fluorophenyl)carbamoyl)-1-methyl-1H-pyrazol-3-yl)-N-(3,3-difluorocyclobutyl)hexahydrocyclopenta[c]-pyrrole-2(1H)-carboxamide] | 50 to 500 nM
15 | Cn1nc(C2CC3CN(c4c(F)cncc4F)CC3C2)c(C(=O)Nc2ccc(F)c(Cl)c2)c1N (centres unmarked) [Example 124, 5-Amino-N-(3-chloro-4-fluorophenyl)-3-(2-(3,5-difluoropyridin-4-yl)octahydrocyclopenta[c]pyrrol-5-yl)-1-methyl-1H-pyrazole-4-carboxamide] | 10 to 50 nM
16 | Cn1nc(C2CC3CN(c4ncc(F)cn4)CC3C2)c(C(=O)Nc2ccc(F)c(Cl)c2)c1N (centres unmarked) [Example 125, 5-Amino-N-(3-chloro-4-fluorophenyl)-3-(2-(5-fluoropyrimidin-2-yl)octahydrocyclopenta[c]pyrrol-5-yl)-1-methyl-1H-pyrazole-4-carboxamide] | 10 to 50 nM
17 | Cn1nc(C2CC3CN(C(=O)NCC4CC(F)(F)C4)CC3C2)c(C(=O)Nc2ccc(F)c(Cl)c2)c1N (centres unmarked) [Example 126, 5-(5-Amino-4-((3-chloro-4-fluorophenyl)carbamoyl)-1-methyl-1H-pyrazol-3-yl)-N-((3,3-difluorocyclobutyl)methyl)-hexahydrocyclopenta[c]pyrrole-2(1H)-carboxamide] | 50 to 500 nM
18 | Cn1nc(C2CC3CN(C(=O)Nc4ncc(C(F)(F)F)s4)CC3C2)c(C(=O)Nc2ccc(F)c(Cl)c2)c1N (centres unmarked) [Example 127, 5-(5-Amino-4-((3-chloro-4-fluorophenyl)carbamoyl)-1-methyl-1H-pyrazol-3-yl)-N-(5-(trifluoromethyl)thiazol-2-yl)hexahydrocyclopenta[c]pyrrole-2(1H)-carboxamide] | 50 to 500 nM
19 | Cn1nc(C2CC3CN(C(=O)OCc4cccc(F)c4)CC3C2)c(C(=O)Nc2ccc(F)c(Cl)c2)c1N (centres unmarked) [Example 130, 3-fluorobenzyl 5-(5-amino-4-((3-chloro-4-fluorophenyl)carbamoyl)-1-methyl-1H-pyrazol-3-yl)hexahydrocyclopenta[c]pyrrole-2(1H)-carboxylate] | 10 to 50 nM
20 | Cn1nc(C2CC3CN(C(=O)NCc4cccc(F)c4)CC3C2)c(C(=O)Nc2ccc(F)c(Cl)c2)c1N (centres unmarked) [Example 131, 5-(5-Amino-4-((3-chloro-4-fluorophenyl)carbamoyl)-1-methyl-1H-pyrazol-3-yl)-N-(3-fluorobenzyl)hexahydrocyclopenta[c]pyrrole-2(1H)-carboxamide] | 10 to 50 nM
21 | Cn1nc(C2CC3CN(c4ccc(C(F)(F)F)nn4)CC3C2)c(C(=O)Nc2ccc(F)c(Cl)c2)c1N (centres unmarked) [Example 132, 5-Amino-N-(3-chloro-4-fluorophenyl)-1-methyl-3-(2-(6-(trifluoromethyl)pyridazin-3-yl)octahydrocyclopenta[c]pyrrol-5-yl)-1H-pyrazole-4-carboxamide] | 10 to 50 nM
22 | Cn1nc(C2CC3CN(c4ncc(C(F)(F)F)cn4)CC3C2)c(C(=O)Nc2ccc(F)c(Cl)c2)c1N (centres unmarked) [Example 133, 5-Amino-N-(3-chloro-4-fluorophenyl)-1-methyl-3-(2-(5-(trifluoromethyl)pyrimidin-2-yl)octahydrocyclopenta[c]pyrrol-5-yl)-1H-pyrazole-4-carboxamide] | 50 to 500 nM
23 | Cn1nc(C2CC3CN(c4ncc(C(F)(F)F)s4)CC3C2)c(C(=O)Nc2ccc(F)c(Cl)c2)c1N (centres unmarked) [Example 134, 5-Amino-N-(3-chloro-4-fluorophenyl)-1-methyl-3-(2-(5-(trifluoromethyl)thiazol-2-yl)octahydrocyclopenta[c]pyrrol-5-yl)-1H-pyrazole-4-carboxamide] | 50 to 500 nM
24 | Cn1nc(C2CC3CN(c4cnc(C(F)(F)F)cn4)CC3C2)c(C(=O)Nc2ccc(F)c(Cl)c2)c1N (centres unmarked) [Example 135, 5-Amino-N-(3-chloro-4-fluorophenyl)-1-methyl-3-(2-(5-(trifluoromethyl)pyrazin-2-yl)octahydrocyclopenta[c]pyrrol-5-yl)-1H-pyrazole-4-carboxamide] | 50 to 500 nM
25 | Cn1nc(C2CC3CN(c4c(Cl)cncc4Cl)CC3C2)c(C(=O)Nc2ccc(F)c(Cl)c2)c1N (centres unmarked) [Example 136, 5-Amino-N-(3-chloro-4-fluorophenyl)-3-(2-(3,5-dichloropyridin-4-yl)octahydrocyclopenta[c]pyrrol-5-yl)-1-methyl-1H-pyrazole-4-carboxamide] | 50 to 500 nM
26 | Cn1cc(C2(O)CC3CC(c4nn(C)c(N)c4C(=O)Nc4ccc(F)c(Cl)c4)CC3C2)cn1 (centres unmarked) [Example 146] | < 10 nM
27 | Cn1nc(C2CC3CC(O)(c4ncc[nH]4)CC3C2)c(C(=O)Nc2ccc(F)c(Cl)c2)c1N (centres unmarked) [Example 147] | 10 to 50 nM

Same assay, conditions: Hepatitis B virus, HePAD38, 120 h, HepAD38 cells, 5 days, HBV DNA in supernatant by qPCR; Table 2 ranges; read-out: VL HepAD38 EC50 range

Row | Structure (SMILES) | EC50
28 | Cn1nc(C2CC3CC3C2)c(C(=O)Nc2ccc(F)c(Cl)c2)c1N (centres unmarked) [Example 139, 5-Amino-3-(bicyclo[3.1.0]hexan-3-yl)-N-(3-chloro-4-fluorophenyl)-1-methyl-1H-pyrazole-4-carboxamide] | < 100 nM
29 | Cn1nc(C2CC3CC(=O)C(c4ccccc4)C3C2)c(C(=O)Nc2ccc(F)c(Cl)c2)c1N (centres unmarked) [Example 140, 5-Amino-N-(3-chloro-4-fluorophenyl)-1-methyl-3-(5-oxo-4-phenyloctahydropentalen-2-yl)-1H-pyrazole-4-carboxamide] | < 100 nM
